In patent publication US7855166B2, “Sulfonylamino(thio)carbonyl compounds” (Bayer Cropscience GmbH, priority 2005, dated 2010):

Tests used:
[1] = system: weed plants such as Sinapis alba, Echinochloa crus-galli, Lolium multiflorum, Chrysanthemum segetum, Setaria viridis, Abutilon theophrasti, Amaranthus …; test: Post-emergence effect on weeds (greenhouse pot test, visual scoring); format: in vivo; conditions: applied post-emergence (three-leaf stage) at a rate of 0.3 kg or less of active substance per hectare; scored after about 3 to 4 weeks in comparison to untreated controls
[2] = system: weed plants such as Sinapis alba, Chrysanthemum segetum, Avena sativa, Stellaria media, Echinochloa crus-galli, Lolium multiflorum, Setaria viridis, Abutilon …; test: Pre-emergence effect on weeds (greenhouse pot test, visual scoring); format: in vivo; conditions: applied pre-emergence at a rate of 0.3 kg or less of active substance per hectare; scored after 3 to 4 weeks in comparison to untreated controls

| Compound | herbicidal action against weed plants (effect scored visually) [1] | herbicidal action against weed plants (visual scoring of plant damage or emergence damage) [2] |
| --- | --- | --- |
| COc1nn(C(=O)NS(=O)(=O)c2ccccc2I)c(=O)n1C [Compound 1.001] | very good herbicidal action | very good herbidical action |
| CCOc1nn(C(=O)NS(=O)(=O)c2ccccc2I)c(=O)n1C [Compound 1.004] | very good herbicidal action | very good herbidical action |
| CCCOc1nn(C(=O)NS(=O)(=O)c2ccccc2I)c(=O)n1C [Compound 1.005] | very good herbicidal action | very good herbidical action |
| COc1nn(C(=O)NS(=O)(=O)c2ccccc2I)c(=O)n1C1CC1 [Compound 1.008] | very good herbicidal action | very good herbidical action |
| CCOc1nn(C(=O)NS(=O)(=O)c2ccccc2I)c(=O)n1C1CC1 [Compound 1.011] | very good herbicidal action | very good herbidical action |
| CCCOc1nn(C(=O)NS(=O)(=O)c2ccccc2I)c(=O)n1C1CC1 [Compound 1.014] | very good herbicidal action | very good herbidical action |
| COc1nn(C(=O)NS(=O)(=O)c2c(F)cccc2I)c(=O)n1C [Compound 1.021] | very good herbicidal action | very good herbidical action |
| CCOc1nn(C(=O)NS(=O)(=O)c2c(F)cccc2I)c(=O)n1C [Compound 1.022] | very good herbicidal action | very good herbidical action |
| CCCOc1nn(C(=O)NS(=O)(=O)c2c(F)cccc2I)c(=O)n1C [Compound 1.023] | very good herbicidal action | very good herbidical action |
| CC(C)Oc1nn(C(=O)NS(=O)(=O)c2c(F)cccc2I)c(=O)n1C [Compound 1.024] | very good herbicidal action | very good herbidical action |
| CCOc1nn(C(=O)NS(=O)(=O)c2c(F)cccc2I)c(=O)n1C1CC1 [Compound 1.027] | very good herbicidal action | very good herbidical action |
| CCCOc1nn(C(=O)NS(=O)(=O)c2c(F)cccc2I)c(=O)n1C1CC1 [Compound 1.028] | very good herbicidal action | very good herbidical action |
| COc1nn(C(=O)NS(=O)(=O)c2c(C)cccc2I)c(=O)n1C [Compound 1.037] | very good herbicidal action | very good herbidical action |
| CCOc1nn(C(=O)NS(=O)(=O)c2c(C)cccc2I)c(=O)n1C [Compound 1.038] | very good herbicidal action | very good herbidical action |
| CCCOc1nn(C(=O)NS(=O)(=O)c2c(C)cccc2I)c(=O)n1C [Compound 1.039] | very good herbicidal action | very good herbidical action |
| Cc1cccc(I)c1S(=O)(=O)NC(=O)n1nc(OC(C)C)n(C)c1=O [Compound 1.040] | very good herbicidal action | very good herbidical action |
| COc1nn(C(=O)NS(=O)(=O)c2c(C)cccc2I)c(=O)n1C1CC1 [Compound 1.042] | very good herbicidal action | very good herbidical action |
| CCCOc1nn(C(=O)NS(=O)(=O)c2c(C)cccc2I)c(=O)n1C1CC1 [Compound 1.044] | very good herbicidal action | very good herbidical action |
| COc1nn(C(=O)NS(=O)(=O)c2c(I)cccc2C(F)(F)F)c(=O)n1C [Compound 1.133] | very good herbicidal action | very good herbidical action |
| CCOc1nn(C(=O)NS(=O)(=O)c2c(I)cccc2C(F)(F)F)c(=O)n1C [Compound 1.136] | very good herbicidal action | very good herbidical action |

| Compound | herbicidal action against weed plants (effect scored visually) [1] | herbicidal action against weed plants (visual scoring of plant damage or emergence damage) [2] |
| --- | --- | --- |
| CCCOc1nn(C(=O)NS(=O)(=O)c2c(I)cccc2C(F)(F)F)c(=O)n1C [Compound 1.137] | very good herbicidal action | very good herbidical action |
| CC(C)Oc1nn(C(=O)NS(=O)(=O)c2c(I)cccc2C(F)(F)F)c(=O)n1C [Compound 1.138] | very good herbicidal action | very good herbidical action |
| COc1nn(C(=O)NS(=O)(=O)c2c(I)cccc2C(F)(F)F)c(=O)n1C1CC1 [Compound 1.140] | very good herbicidal action | very good herbidical action |
| CCOc1nn(C(=O)NS(=O)(=O)c2c(I)cccc2C(F)(F)F)c(=O)n1C1CC1 [Compound 1.143] | very good herbicidal action | very good herbidical action |
| CCOc1nn(C(=O)NS(=O)(=O)c2c(I)cccc2OC)c(=O)n1C1CC1 [Compound 1.191, 4-Cyclopropyl-3-ethoxy-N-[(2-iodo-6-methoxyphenyl)sulfonyl]-5-oxo-4,5-dihydro-1H-1,2,4-triazole-1-carboxamide] | very good herbicidal action | very good herbidical action |
| CCOc1nn(C(=O)NS(=O)(=O)c2c(I)cccc2OC)c(=O)n1C [Compound 1.194] | very good herbicidal action | very good herbidical action |
| CCCOc1nn(C(=O)NS(=O)(=O)c2c(I)cccc2OC)c(=O)n1C [Compound 1.195] | very good herbicidal action | very good herbidical action |
| COc1cccc(I)c1S(=O)(=O)NC(=O)n1nc(OC(C)C)n(C)c1=O [Compound 1.196] | very good herbicidal action | very good herbidical action |
| CCSc1nn(C(=O)NS(=O)(=O)c2c(I)cccc2OC)c(=O)n1C [Compound 1.197] | very good herbicidal action | very good herbidical action |
| COc1cccc(I)c1S(=O)(=O)NC(=O)n1nc(OC)n(C2CC2)c1=O [Compound 1.198] | very good herbicidal action | very good herbidical action |
| CCCOc1nn(C(=O)NS(=O)(=O)c2c(I)cccc2OC)c(=O)n1C1CC1 [Compound 1.204] | very good herbicidal action | very good herbidical action |
| CCOc1cccc(I)c1S(=O)(=O)NC(=O)n1nc(OC)n(C)c1=O [Compound 1.211] | very good herbicidal action | very good herbidical action |
| CCOc1cccc(I)c1S(=O)(=O)NC(=O)n1nc(OCC)n(C)c1=O [Compound 1.214] | very good herbicidal action | very good herbidical action |
| CCCOc1nn(C(=O)NS(=O)(=O)c2c(I)cccc2OCC)c(=O)n1C [Compound 1.215] | very good herbicidal action | very good herbidical action |
| CCOc1cccc(I)c1S(=O)(=O)NC(=O)n1nc(OC)n(C2CC2)c1=O [Compound 1.218] | very good herbicidal action | very good herbidical action |
| CCOc1cccc(I)c1S(=O)(=O)NC(=O)n1nc(OCC)n(C2CC2)c1=O [Compound 1.221] | very good herbicidal action | very good herbidical action |
| CCCOc1cccc(I)c1S(=O)(=O)NC(=O)n1nc(OC)n(C)c1=O [Compound 1.231] | very good herbicidal action | very good herbidical action |
| CCCOc1cccc(I)c1S(=O)(=O)NC(=O)n1nc(OCCC)n(C)c1=O [Compound 1.235] | very good herbicidal action | very good herbidical action |
| CCCOc1cccc(I)c1S(=O)(=O)NC(=O)n1nc(OC(C)C)n(C)c1=O [Compound 1.236] | very good herbicidal action | very good herbidical action |
